From US10947285B2, “Compounds, compositions and uses thereof for improvement of bone disorders” (Amolyt Pharma, priority 2017, dated 2021)
Non-standard residues stand in square brackets, D forms with d. Residues, ends and D or L forms follow the SMILES beside them. Primed or numbered codes have the meaning given here. No end group written: not given here. *: point of attachment. PEG20′ = PEG20 chain (pegylated), attached via a cysteine; C16 diacid = O=C(O)CCCCCCCCCCCCCCC(=O)*; Arachidoyl = CCCCCCCCCCCCCCCCCCCC(=O)*; Stearoyl = CCCCCCCCCCCCCCCCCC(=O)*; Palmitoyl = CCCCCCCCCCCCCCCC(=O)*; Myristoyl = CCCCCCCCCCCCCC(=O)*

Tests used:
[1] = Pharmacokinetic of acylated HBD-1 fragment analogs in male Sprague Dawley rats after subcutaneous injection; type: in vivo; details: Table 24, sc, 1 μmol net peptide/kg
Procedure: The peptides were reconstituted in saline (0.9% NaCl). Three male Sprague Dawley rats (approximately 6 weeks of age) were used per group. Subcutaneous doses were administered into the right flank of each animal at the target dose level of 1 μmol net peptide/kg. Following dosing, serial whole blood samples (ca. 0.3 mL) were collected from retro-orbital sinus into K2EDTA treated containers. Following each blood sample collection, samples were placed into a cooling block at 4° C. Samples were collected prior to dosing then at 15 and 30 minutes then 1, 2, 4, 6, 8 and 24 hours post dose for subcutaneous injection. Blood samples were centrifuged at 3500×rpm for 10 minutes at 4° C. and resultant plasma aspirated off into clean fully, labelled tubes. Plasma samples were snap frozen following aspiration then stored at −80° C. The peptides were extracted with acetonitrile:water (75:25, v/v) and analyzed using developed LC-MS/MS methods as described in Example 9. The limits of detection of these methods are 0.003 nmol/mL for HBD1 (1-13) with palmitic acid at the N-terminus (C16:0), 0.0008 nmol/mL for HBD1 (3-11) with palmitic acid at the N-terminus (C16:0), 0.0070 nmol/mL for HBD1 (3-11) with stearic acid at the N-terminus (C18:0), and 0.0015 nmol/mL for HBD1 (3-11) with myristic acid at the N-terminus (C14:0), HBD1 (3-11) with arachidic acid at the N-terminus (C20:0), HBD1 (3-11) with palmitic diacid at the N-terminus (C16:0-diacid), HBD1 (3-11) with palmitic acid at the C-terminus (C16:0). All values below these limits of quantification were considered as zero.

[2] = system: MC-3T3 E1 clone 4 (CL4) osteoblast cells; assay: in vitro osteoblast differentiation bioassay (stimulation of osteocalcin protein synthesis); type: cell-based
Procedure: Each peptide was tested in a biologic assay measuring its ability to stimulate differentiation of osteoblast cells over a 18-21 day interval (Table 8) or a 14-15 day interval (Table 9) as assessed by the stimulation of osteocalcin protein synthesis. MC-3T3 E1 clone 4 (CL4) osteoblast cells were obtained from ATCC (Manassas, Va., USA). Cells were cultured in α-MEM containing 10% fetal bovine serum (FBS; Thermo Fisher Scientific, Pittsburgh, Pa., USA). After confluency, culture medium was changed to differentiation medium (DM), which contained 10% FBS plus 50 μg/mL ascorbic acid and 4 mM β-glycerol phosphate, with or without a test peptide (1 μg/mL in Table 8 or 1 μmol/L in Table 9). Fresh DM, with or without test peptide, was applied every 72 hours. The cell monolayers were lysed in a modified radioimmunoprecipitation assay (RIPA) buffer. Total cellular protein in the lysates was determined using BCA (Thermo Fisher Scientific, Rockford, Ill., USA). Cell proteins are separated on SDS-PAGE gel and transferred on PVDF membrane for analysis. Osteocalcin detection was performed using anti-osteocalcin antibody at 1:200 dilution (Santa Cruz Biotechnology, Inc, Santa Cruz, Calif., USA) or at 1:3000 dilution (NPT Inc., Chapel Hill, N.C., USA) and visualized using enhanced chemiluminescence (Thermo Fisher Scientific, Rockford, Ill., USA).
The peptide was tested at different concentrations in a biologic assay measuring its ability to stimulate differentiation of osteoblast cells over a 18 day interval as assessed by the stimulation of osteocalcin protein synthesis. MC-3T3 E1 clone 4 (CL4) osteoblast cells were obtained from ATCC (Manassas, Va., USA). Cells were cultured in α-MEM containing 10% fetal bovine serum (FBS; Thermo Fisher Scientific, Pittsburgh, Pa., USA). After confluency, culture medium was changed to differentiation medium (DM), which contained 10% FBS plus 50 μg/mL ascorbic acid and 4 mM β-glycerol phosphate, with or without an ascending dose of the peptide from 0.1 μg/mL to 4 μg/mL. Fresh DM, with or without the peptide, was applied every 72 hours. The cell monolayers were lysed in a modified radioimmunoprecipitation assay (RIPA) buffer. Total cellular protein in the lysates was determined using BCA (Thermo Fisher Scientific, Rockford, Ill., USA). Cell proteins are separated on SDS-PAGE gel and transferred on PVDF membrane for analysis. Osteocalcin detection was performed using anti-osteocalcin antibody at 1:200 dilution (Santa Cruz Biotechnology, Inc, Santa Cruz, Calif., USA) and visualized using enhanced chemiluminescence (Thermo Fisher Scientific, Rockford, Ill., USA).
Each peptide was tested in a biologic assay measuring its ability to stimulate differentiation of osteoblast cells over a 15 day interval as assessed by the stimulation of osteocalcin protein synthesis. MC-3T3 E1 clone 4 (CL4) osteoblast cells were obtained from ATCC (Manassas, Va., USA). Cells were cultured in α-MEM containing 10% fetal bovine serum (FBS; Thermo Fisher Scientific, Pittsburgh, Pa., USA). After confluency, culture medium was changed to differentiation medium (DM), which contained 10% FBS plus 50 μg/mL ascorbic acid and 4 mM β-glycerol phosphate, with or without a test peptide (1 μg/mL). Fresh DM, with or without test peptide, was applied every 72 hours for 15 days. The cell monolayers were lysed in a modified radioimmunoprecipitation assay (RIPA) buffer. Total cellular protein in the lysates was determined using BCA (Thermo Fisher Scientific, Rockford, Ill., USA). Cell proteins are separated on SDS-PAGE gel and transferred on PVDF membrane for analysis. Osteocalcin detection was performed using anti-osteocalcin antibody at 1:200 dilution (Santa Cruz Biotechnology, Inc, Santa Cruz, Calif., USA) and visualized using enhanced chemiluminescence (Thermo Fisher Scientific, Rockford, Ill., USA). […]

[3] = Stability of HBD1 fragments in human plasma; type: in vitro ADME; details: 24 and 48 hours incubation at 37° C.
Procedure: The peptides were spiked at 1 μg/mL (peptide backbone) into pre-warmed human K2EDTA plasma (at 37° C.) and incubated for up to 48 hours. Aliquots of plasma were extracted at specific time points (0, 24 and 48 hours post spike). Extraction was performed with acetonitrile:water (75:25, v/v) for HBD1 (1-13), HBD1 (1-13) with palmitic acid at the N-terminus (C16:0), HBD1 (3-11) with palmitic acid at the N-terminus (C16:0)) and HBD1 (3-11) with stearic acid at the N-terminus (C18:0) or with acetonitrile:water:formic acid (75:25:0.1, v/v/v) for HBD1 (3-11) and cyclic HBD1 (3-11). The peptides were analyzed using developed LC (C18 reverse phase column)—positive ion electrospray MS/MS methods specific to each peptide. The peak area at each time point was expressed as a percentage of the value obtained for the t=0 minutes time point.

[4] = Table 17, PEGylated fragments, 2 μg/mL, 18-21 day interval

| Compound | Tlast (last time point with detectable peptide) [1] [h] | Fold increase vs DM ± SE [2, 4] [fold] | further results |
| --- | --- | --- | --- |
| CCCCCCCCCCCCCC(=O)N[C@@H](Cc1c[nH]cn1)C(=O)N[C@@H](CC(C)C)C(=O)NCC(=O)N[C@@H](CC(C)C)C(=O)N[C@@H](CCC(=O)O)C(=O)N[C@@H](CCC(=O)O)C(=O)N1CCC[C@H]1C(=O)N[C@@H](CCCCN)C(=O)N[C@@H](CCCCN)C(=O)O [compound 71] (Myristoyl-HLGLEEPKK-OH; C-terminus assumed) | 6 | – | – |
| 64 (KHHLGLEEPKKLR; not fully specified; MOD_RES (13)..(13) Pegylated) [compound 64] | – | 2.2 ± 0.4 | – |
| 67 ([PEG20′]CHLGLEEPKK; not fully specified (some residues); printed as PEG20-C-HLGLEEPKK) [compound 67] | – | 1.9 ± 0.2 | – |
| CCCCCCCCCCCCCCCCCC(=O)N[C@@H](Cc1c[nH]cn1)C(=O)N[C@@H](CC(C)C)C(=O)NCC(=O)N[C@@H](CC(C)C)C(=O)N[C@@H](CCC(=O)O)C(=O)N[C@@H](CCC(=O)O)C(=O)N1CCC[C@H]1C(=O)N[C@@H](CCCCN)C(=O)N[C@@H](CCCCN)C(=O)O [compound 73] (Stearoyl-HLGLEEPKK-OH) | 8 | – | stability in human plasma (in words) [3]: plasma stability profile similar to that of the corresponding unconjugated linear peptide HBD1 (3-11); Fold increase vs DM ± SE ([2]; Table 19, dose 1.0 μM, 18 day interval): 3.46 ± 0.47 fold; Fold increase vs DM ± SE ([2]; Table 19, dose 2.0 μM, 18 day interval): 4.48 ± 0.07 fold; Fold increase vs DM ± SE ([2]; Table 19, dose 3.0 μM, 18 day interval): 5.66 ± 0.45 fold |
| CCCCCCCCCCCCCCCC(=O)NCCCC[C@H](NC(=O)[C@H](CCCCN)NC(=O)[C@@H]1CCCN1C(=O)[C@H](CCC(=O)O)NC(=O)[C@H](CCC(=O)O)NC(=O)[C@H](CC(C)C)NC(=O)CNC(=O)[C@H](CC(C)C)NC(=O)[C@@H](N)Cc1c[nH]cn1)C(=O)O [compound 76] (H-HLGLEEPKK(Palmitoyl)-OH; N-terminus and C-terminus assumed) | 8 | – | – |
| 66 (HHLGLEEPKK; not fully specified; MOD_RES (10)..(10) Pegylated) [compound 66] | – | 2.2 ± 0.2 | – |
| 63 ([PEG20′]CKHHLGLEEPKKLR; not fully specified (some residues); printed as PEG20-C-KHHLGLEEPKKLR) [compound 63] | – | 1.4 ± 0.3 | – |
| CC(C)C[C@H](NC(=O)CNC(=O)[C@H](CC(C)C)NC(=O)[C@H](Cc1c[nH]cn1)NC(=O)CCCCCCCCCCCCCCC(=O)O)C(=O)N[C@@H](CCC(=O)O)C(=O)N[C@@H](CCC(=O)O)C(=O)N1CCC[C@H]1C(=O)N[C@@H](CCCCN)C(=O)N[C@@H](CCCCN)C(=O)O [compound 75] ({C16 diacid}-HLGLEEPKK-OH; C-terminus assumed) | 8 | – | – |
| CCCCCCCCCCCCCCCC(=O)N[C@@H](CCCCN)C(=O)N[C@@H](Cc1c[nH]cn1)C(=O)N[C@@H](Cc1c[nH]cn1)C(=O)N[C@@H](CC(C)C)C(=O)NCC(=O)N[C@@H](CC(C)C)C(=O)N[C@@H](CCC(=O)O)C(=O)N[C@@H](CCC(=O)O)C(=O)N1CCC[C@H]1C(=O)N[C@@H](CCCCN)C(=O)N[C@@H](CCCCN)C(=O)N[C@@H](CC(C)C)C(=O)N[C@@H](CCCNC(=N)N)C(=O)O [compound 78] (Palmitoyl-KHHLGLEEPKKLR-OH) | 8 | – | – |
| CC(C)C[C@@H]1NC(=O)CNC(=O)[C@H](CC(C)C)NC(=O)[C@H](Cc2c[nH]cn2)NC(=O)[C@H](CCCCN)NC(=O)[C@H](CCCCN)NC(=O)[C@@H]2CCCN2C(=O)[C@H](CCC(=O)O)NC(=O)[C@H](CCC(=O)O)NC1=O [compound 77] (cyclo(EEPKKHLGL)) | – | – | stability in human plasma (in words) [3]: plasma stability profile similar to that of the corresponding unconjugated linear peptide HBD1 (3-11) |
| 65 ([PEG20′]CHHLGLEEPKK; not fully specified (some residues); printed as PEG20-C-HHLGLEEPKK) [compound 65] | – | 1.4 ± 0.1 | – |
| CCCCCCCCCCCCCCCC(=O)N[C@@H](Cc1c[nH]cn1)C(=O)N[C@@H](CC(C)C)C(=O)NCC(=O)N[C@@H](CC(C)C)C(=O)N[C@@H](CCC(=O)O)C(=O)N[C@@H](CCC(=O)O)C(=O)N1CCC[C@H]1C(=O)N[C@@H](CCCCN)C(=O)N[C@@H](CCCCN)C(=O)O [compound 72] (Palmitoyl-HLGLEEPKK-OH) | 8 | – | stability in human plasma (in words) [3]: plasma stability profile similar to that of the corresponding unconjugated linear peptide HBD1 (3-11) |
| CCCCCCCCCCCCCCCCCCCC(=O)N[C@@H](Cc1c[nH]cn1)C(=O)N[C@@H](CC(C)C)C(=O)NCC(=O)N[C@@H](CC(C)C)C(=O)N[C@@H](CCC(=O)O)C(=O)N[C@@H](CCC(=O)O)C(=O)N1CCC[C@H]1C(=O)N[C@@H](CCCCN)C(=O)N[C@@H](CCCCN)C(=O)O [compound 74] (Arachidoyl-HLGLEEPKK-OH; C-terminus assumed) | 8 | – | – |
